# Measurements as given in patent US20240066027A1 (DOMAIN THERAPEUTICS, priority 2020, published 2024).
# Structures can show the parent of a compound that is named as a salt.
# Biological target: T1, human PAR-2 (hPAR-2) receptor expressed in HEK-293 T cells in an endogenous manner (Homo sapiens, UniProt P55085)
# T1 construct: human PAR-2 (hPAR-2) receptor expressed in HEK-293 T cells in an endogenous manner; endogenous in cells; host or cells: HEK-293 T cells
# T1 sequence (P55085 26-397): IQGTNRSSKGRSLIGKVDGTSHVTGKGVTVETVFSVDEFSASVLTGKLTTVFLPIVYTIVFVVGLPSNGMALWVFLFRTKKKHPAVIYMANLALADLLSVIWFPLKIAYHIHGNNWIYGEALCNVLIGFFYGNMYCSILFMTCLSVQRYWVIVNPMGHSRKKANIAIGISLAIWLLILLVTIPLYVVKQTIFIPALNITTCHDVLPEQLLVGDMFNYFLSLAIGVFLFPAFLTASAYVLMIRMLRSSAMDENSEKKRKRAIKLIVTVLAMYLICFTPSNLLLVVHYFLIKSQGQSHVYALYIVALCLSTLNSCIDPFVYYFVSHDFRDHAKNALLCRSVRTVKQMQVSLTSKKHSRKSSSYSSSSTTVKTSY
# Experiment: In vitro human PAR-2 functional antagonist activity using calcium assays (Fluo4AM, FLIPR Tetra)
# Format: cell-based
# Details: HEK-293 T cells stimulated by an EC80 of the 2-Furoyl-LIGRLO-NH2 peptide after 10 min incubation with compound; 20 concentrations, duplicate, two independent experiments
# Description: In vitro human PAR-2 functional antagonist activity using calcium assays
# Examples of the present invention were tested successively for their agonist and antagonist activities on human PAR-2 (hPAR-2) receptor expressed in HEK-293 T cells in an endogenous manner. Compounds exert agonist activity if, by themselves in absence of the 2-Furoyl-LIGRLO-NH2 peptide (selective hPAR-2 agonist), they activate PAR-2; they exert antagonist activity if they decrease the action of the 2-Furoyl-LIGRLO-NH2 peptide on the receptor. The assay used to determine compound activity is based on calcium measurement.
# Cell Culture: HEK-293 T cells were maintained in Dulbecco's Modified Eagle's Medium supplemented with 10% Foetal Calf Serum, 1% Penicillin/Streptomycin at 37° C./5% CO2. Flasks for tests (F75) are seeded with 6e+06 cells 24 h before the experiment at 37° C./5% CO2.
# Calcium assay: Receptor activity was detected by changes in intracellular calcium measured using the fluorescent Ca^2+ sensitive dye, Fluo4AM (Molecular Probes).
# The day of the assay, medium was replaced by assay buffer (HBSS 1× (Gibco 14175-053), Hepes 20 mM, MgSO4-7H2O 1 mM, Na2CO3 3.3 mM, CaCl2-2H2O 1.3 mM, 0.5% BSA, Probenecid 2.5 mM, 0.1 mg/mL Pluronic Acid) and complemented with 1 μM Fluo4AM and cells were incubated during 1:30 h at 37° C.
# Cells were then detached, resuspended in assay buffer and seeded in 384 wells, transparent-flat bottom black walled plates (2e+04 cells per well). Plates were incubated at +22° C. for 20 min. Compounds stock solutions were prepared in 100% DMSO and dilutions in test buffer were carried out in polypropylene plates with a digital dispenser (D300e, Tecan). Compounds were added to the cells and intracellular Ca^2+ measurements were collected at the same time on FLIPR Tetra® (Molecular Devices) with specific filters (Exc: 470-495 nm/Em: 515-575 nm).
# Agonist and antagonist activities of compounds were consecutively evaluated on the same cell plate. Agonist activity was first measured after 10 min incubation with the compound alone. Then, cells were stimulated by an EC80 of the 2-Furoyl-LIGRLO-NH2 peptide and fluorescence was recorded for an additional 5 min. EC80 of the 2-Furoyl-LIGRLO-NH2 peptide was the concentration giving 80% of the maximal 2-Furoyl-LIGRLO-NH2 response. Agonist activities are evaluated in comparison to basal signals evoked by assay buffer or maximal 2-Furoyl-LIGRLO-NH2 response. […] Antagonist activities are evaluated in comparison to basal signals evoked by assay buffer or EC80 of 2-Furoyl-LIGRLO-NH2 alone.
row,Structure (SMILES),IC50
1,"CC(C)Cc1nn(-c2ccc(Cl)c(F)c2)c2ccc(C(=O)N3CCN(C)C(=O)C3)nc12 [Example 63, 4-(1-(4-chloro-3-fluorophenyl)-3-isobutyl-1H-pyrazolo[4,3-b]pyridine-5-carbonyl)-1-methylpiperazin-2-one]",> 10 µM
2,"COC(=O)c1c(C)cc(N2CCN(C(=O)c3ccc4c(n3)c(CC(C)C)nn4-c3ccc(Cl)c(F)c3)C(C)(C)C2)nc1C [Example 64, methyl 6-(4-(1-(4-chloro-3-fluorophenyl)-3-isobutyl-1H-pyrazolo[4,3-b]pyridine-5-carbonyl)-3,3-dimethylpiperazin-1-yl)-2,4-dimethylnicotinate]",> 10 µM
3,"Cc1cc(N2CCN(C(=O)c3ccc4c(n3)c(CC(C)C)nn4-c3ccc(Cl)c(F)c3)C(C)(C)C2)nc(C)c1C(=O)O [Example 65, 6-(4-(1-(4-chloro-3-fluorophenyl)-3-isobutyl-1H-pyrazolo[4,3-b]pyridine-5-carbonyl)-3,3-dimethylpiperazin-1-yl)-2,4-dimethylnicotinic acid]",0.02 to 10 µM
4,"CC(C)Cc1nn(-c2cccc(Cl)c2)c2ccc(C(=O)N3CCNC(=O)C3(C)C)nc12 [Example 67, 4-(1-(3-chlorophenyl)-3-isobutyl-1H-pyrazolo[4,3-b]pyridine-5-carbonyl)-3,3-dimethylpiperazin-2-one]",0.02 to 10 µM
5,"CC(C)Cc1nn(-c2ccc(Cl)c(F)c2)c2ccc(C(=O)N3CCC(C(=O)O)C(C)(C)C3)nc12 (stereo not shown) [Example 69, 1-(1-(4-chloro-3-fluorophenyl)-3-isobutyl-1H-pyrazolo[4,3-b]pyridine-5-carbonyl)-3,3-dimethylpiperidine-4-carboxylic acid]",> 10 µM
6,"CC(C)Cc1nn(-c2ccc(Cl)c(F)c2)c2ccc(C(=O)N3CCC4(CC3)NC(=O)NC4=O)nc12 [Example 70, 8-(1-(4-chloro-3-fluorophenyl)-3-isobutyl-1H-pyrazolo[4,3-b]pyridine-5-carbonyl)-1,3,8-triazaspiro[4.5]decane-2,4-dione]",> 10 µM
7,"Cc1nn(-c2ccc(Cl)c(F)c2)c2ccc(C(=O)N3CCNC(=O)C3(C)C)nc12 [Example 71, 4-(1-(4-chloro-3-fluorophenyl)-3-methyl-1H-pyrazolo[4,3-b]pyridine-5-carbonyl)-3,3-dimethylpiperazin-2-one]",0.02 to 10 µM
8,"CC1(C)C(=O)NCCN1C(=O)c1ccc2c(n1)c(C1CCOCC1)nn2-c1ccc(Cl)c(F)c1 [Example 72, 4-(1-(4-chloro-3-fluorophenyl)-3-(tetrahydro-2H-pyran-4-yl)-1H-pyrazolo[4,3-b]pyridine-5-carbonyl)-3,3-dimethylpiperazin-2-one]",0.02 to 10 µM
9,"CC(C)Cc1nn(-c2ccc(Cl)cc2Cl)c2ccc(C(=O)N3CCNC(=O)C3(C)C)nc12 [Example 73, 4-(1-(2,4-dichlorophenyl)-3-isobutyl-1H-pyrazolo[4,3-b]pyridine-5-carbonyl)-3,3-dimethylpiperazin-2-one]",0.02 to 10 µM
10,"CC(C)Cc1nn(-c2ccccc2Cl)c2ccc(C(=O)N3CCNC(=O)C3(C)C)nc12 [Example 74, 4-(1-(2-chlorophenyl)-3-isobutyl-1H-pyrazolo[4,3-b]pyridine-5-carbonyl)-3,3-dimethylpiperazin-2-one]",> 10 µM
11,CC(C)(C)c1nn(-c2ccc(Cl)c(F)c2)c2ccc(C(=O)N3CCNC(=O)C3(C)C)nc12 [Example 75],0.02 to 10 µM
12,"CC1(C)C(=O)NCCN1C(=O)c1ccc2c(n1)c(C1CCCC1)nn2-c1ccc(Cl)c(F)c1 [Example 76, 4-(1-(4-chloro-3-fluorophenyl)-3-cyclopentyl-1H-pyrazolo[4,3-b]pyridine-5-carbonyl)-3,3-dimethylpiperazin-2-one]",0.02 to 10 µM
13,"CC1(C)C(=O)NCCN1C(=O)c1ccc2c(n1)c(C1CC1)nn2-c1ccc(Cl)c(F)c1 [Example 77, 4-(1-(4-chloro-3-fluorophenyl)-3-cyclopropyl-1H-pyrazolo[4,3-b]pyridine-5-carbonyl)-3,3-dimethylpiperazin-2-one]",0.02 to 10 µM
14,"CC(C)Cc1nn(Cc2ccc(Cl)c(F)c2)c2ccc(C(=O)N3CCNC(=O)C3(C)C)nc12 [Example 78, 4-(1-(4-chloro-3-fluorobenzyl)-3-isobutyl-1H-pyrazolo[4,3-b]pyridine-5-carbonyl)-3,3-dimethylpiperazin-2-one]",> 10 µM
15,"CC(C)(C)c1nn(-c2ccc(Cl)c(F)c2)c2ncc(C(=O)N3CCNC(=O)C3(C)C)cc12 [Example 80, 4-(3-(tert-butyl)-1-(4-chloro-3-fluorophenyl)-1H-pyrazolo[3,4-b]pyridine-5-carbonyl)-3,3-dimethylpiperazin-2-one]",0.02 to 10 µM
16,Cc1cc2c(nc1C(=O)N1CCNC(=O)C1(C)C)c(CC(C)C)nn2-c1ccc(Cl)c(F)c1 [Example 81],> 10 µM
17,"CC(C)Cn1nc(-c2ccc(Cl)c(F)c2)c2ccc(C(=O)N3CCNC(=O)C3(C)C)cc21 [Example 83, 4-(3-(4-chloro-3-fluorophenyl)-1-isobutyl-1H-indazole-6-carbonyl)-3,3-dimethylpiperazin-2-one]",0.02 to 10 µM
18,"CC(C)Cn1cc(-c2ccc(Cl)cc2Cl)c2ccc(C(=O)N3CCNC(=O)C3(C)C)nc21 [Example 84, 4-(3-(2,4-dichlorophenyl)-1-isobutyl-1H-pyrrolo[2,3-b]pyridine-6-carbonyl)-3,3-dimethylpiperazin-2-one]",0.02 to 10 µM
19,"CC(C)Cc1nn(-c2ccc(Cl)cc2)c2ccc(C(=O)N3CCNC(=O)C3(C)C)nc12 [Example 85, 4-(1-(4-chlorophenyl)-3-isobutyl-1H-pyrazolo[4,3-b]pyridine-5-carbonyl)-3,3-dimethylpiperazin-2-one]",0.02 to 10 µM
20,"Cc1cc(N2CCN(C(=O)c3ccc4c(-c5ccc(Cl)c(F)c5)nn(C(C)(C)C)c4n3)C(C)(C)C2)nc(C)c1C(=O)O [Example 87, 6-(4-(1-(tert-butyl)-3-(4-chloro-3-fluorophenyl)-1H-pyrazolo[3,4-b]pyridine-6-carbonyl)-3,3-dimethylpiperazin-1-yl)-2,4-dimethylnicotinic acid]",0.02 to 10 µM
21,"CC(C)Cc1nn(-c2ccc(Cl)c(F)c2)c2ccc(C(=O)N3CCNC(=O)C3)nc12 [Example 88, 4-(1-(4-chloro-3-fluorophenyl)-3-isobutyl-1H-pyrazolo[4,3-b]pyridine-5-carbonyl)piperazin-2-one]",> 10 µM
22,"CC(C)Cn1cc(C2=CCN(C)CC2)c2ccc(C(=O)N3CCNC(=O)C3(C)C)nc21 [Example 91, 4-(1-isobutyl-3-(1-methyl-1,2,3,6-tetrahydropyridin-4-yl)-1H-pyrrolo[2,3-b]pyridine-6-carbonyl)-3,3-dimethylpiperazin-2-one hydrochloride]",> 10 µM
23,"CC(C)Cc1nn(-c2ccc(Cl)c(F)c2)c2ccc(C(=O)N3CCC4(CC3)C(=O)NCN4c3ccccc3)nc12 [Example 94, 8-(1-(4-chloro-3-fluorophenyl)-3-isobutyl-1H-pyrazolo[4,3-b]pyridine-5-carbonyl)-1-phenyl-1,3,8-triazaspiro[4.5]decan-4-one]",> 10 µM
24,"Cc1cc(N2CCN(C(=O)c3ccc4c(-c5ccc(Cl)c(F)c5)cn(CC(C)C)c4n3)C(C)(C)C2)nc(C)c1C(=O)O [Example 95, 6-(4-(3-(4-chloro-3-fluorophenyl)-1-isobutyl-1H-pyrrolo[2,3-b]pyridine-6-carbonyl)-3,3-dimethylpiperazin-1-yl)-2,4-dimethylnicotinic acid]",< 0.02 µM
25,"CC(C)n1cc(-c2ccc(Cl)c(F)c2)c2ccc(C(=O)N3CCNC(=O)C3(C)C)nc21 [Example 96, 4-(3-(4-chloro-3-fluorophenyl)-1-isopropyl-1H-pyrrolo[2,3-b]pyridine-6-carbonyl)-3,3-dimethylpiperazin-2-one]",< 0.02 µM
